Data as given in PMC3280264 (PLoS ONE, 2012).
Marks after values point to notes of the source that are not given here.

What was measured:
Human SGLT3 = molecular target: T1, Human SGLT3 (Homo sapiens, UniProt Q9NY91); assay: Two-electrode voltage clamp recording of oocytes expressing human SGLT3 (DNJ-induced currents); type: cell-based
T1 construct: expressed in transfected cells; host or cells: oocytes (from Nasco), injected with mRNA
T1 sequence (Q9NY91 1-659): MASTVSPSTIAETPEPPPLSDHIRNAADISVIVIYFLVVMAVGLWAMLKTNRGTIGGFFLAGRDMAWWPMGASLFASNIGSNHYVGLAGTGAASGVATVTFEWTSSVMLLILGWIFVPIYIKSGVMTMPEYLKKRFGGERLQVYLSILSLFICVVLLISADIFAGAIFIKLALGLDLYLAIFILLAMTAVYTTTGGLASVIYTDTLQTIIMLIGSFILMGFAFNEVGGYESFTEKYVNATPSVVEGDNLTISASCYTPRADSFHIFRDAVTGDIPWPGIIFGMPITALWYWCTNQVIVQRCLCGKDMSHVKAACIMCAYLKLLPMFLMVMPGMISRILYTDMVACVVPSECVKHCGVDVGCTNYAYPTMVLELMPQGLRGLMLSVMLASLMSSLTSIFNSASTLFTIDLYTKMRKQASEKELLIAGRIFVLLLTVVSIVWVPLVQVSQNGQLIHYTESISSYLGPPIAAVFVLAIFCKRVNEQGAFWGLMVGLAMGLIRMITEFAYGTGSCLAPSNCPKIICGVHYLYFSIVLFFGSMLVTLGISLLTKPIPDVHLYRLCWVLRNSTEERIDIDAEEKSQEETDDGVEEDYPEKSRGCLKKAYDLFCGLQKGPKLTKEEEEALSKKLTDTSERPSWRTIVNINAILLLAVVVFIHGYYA
Method: Oocytes were obtained from Nasco (Fort Atkinson, Wisconsin, USA). Stage V–VI oocytes were injected with 50 nl of either human SGLT3 mRNA (at 1 ng/nl) or distilled water (control) and incubated at 18°C in a calcium-free solution (92 mM NaCl, 2 mM KCl, 1 mM MgCl2, 5 mM HEPES, 0.05 mg/ml gentamicin at pH 7.5) for 4–6 days before recording. The extracellular recording solution contained 92 mM NaCl, 2 mM KCl, 1.8 mM CaCl2, 1 mM MgCl2, and 5 mM HEPES at pH 7.5. Injected oocytes were impaled with 2 microelectrodes filled with 3 M KCl (resistance of ∼0.5–3 MΩ) and voltage clamped to −120 mV, at which continuous recordings were made (filtered at 5 kHz and sampled at 625 Hz). To establish the baseline in the absence of agonist, oocytes were first perfused for 85 seconds with a control buffer (92 mM NaCl, 2 mM KCl, 1.8 mM CaCl2, 1 mM MgCl2, 5 mM HEPES at pH 7.5). […] Finally, phlorizin (3 mM) was applied in the presence of 50 µM DNJ for 160 seconds. All experiments were performed at 22°C. Currents in the presence of 50 µM DNJ were subtracted from leak currents (currents in control buffer alone) to obtain DNJ-induced currents (IDNJ). Effects of compounds were calculated as: % Inhibition = 100×(IDNJ−Icmpd)/IDNJ, where Icmpd is the DNJ-induced and leak-subtracted current in the presence of a compound or DMSO. Due to lack of effect at the highest dose tested, a dose-response relationship was not examined.

DIO mice = assay: 4-week treatment of DIO mice (body weight, UGE, calorimetry); type: in vivo; conditions: DIO mouse, 30 mg/kg, 4 weeks
Source text: Four rodent models were used in these experiments: (1) male C57BL/6J mice fed with a high-fat diet (D-12492 with 60 kcal% fat, Research Diets, Inc, New Jersey, USA) (diet-induced obese, insulin resistantmice [DIO]); (2) male C57BL/ksj-db/db hyperglycemic mice; (3) male Zucker fatty (ZF) obese, insulin resistant rats; and (4) male ZDF obese, hyperglycemic rats. All animals were housed according to standard procedures following a protocol approved by the IACUC in Drug Discovery at Johnson & Johnson Pharmaceutical Research & Development, LLC.
Body weight, food intake, and BG levels were monitored weekly. UGE and indirect calorimetry were conducted in the fourth week of treatment during the compound treatment. […] Body weight, food intake, and BG were measured weekly during the 19-day treatment period. UGE, body fat, and indirect calorimetric studies were conducted at the end of this study.

[1] = molecular target: T2, glucose transporter 1 (GLUT1) (Rattus norvegicus, UniProt P11167); assay: 3H-2-deoxy-glucose uptake in L6 myoblast cells; type: cell-based
T2 construct: endogenous in cells; host or cells: L6 rat skeletal muscle myoblasts
T2 sequence (P11167 1-492): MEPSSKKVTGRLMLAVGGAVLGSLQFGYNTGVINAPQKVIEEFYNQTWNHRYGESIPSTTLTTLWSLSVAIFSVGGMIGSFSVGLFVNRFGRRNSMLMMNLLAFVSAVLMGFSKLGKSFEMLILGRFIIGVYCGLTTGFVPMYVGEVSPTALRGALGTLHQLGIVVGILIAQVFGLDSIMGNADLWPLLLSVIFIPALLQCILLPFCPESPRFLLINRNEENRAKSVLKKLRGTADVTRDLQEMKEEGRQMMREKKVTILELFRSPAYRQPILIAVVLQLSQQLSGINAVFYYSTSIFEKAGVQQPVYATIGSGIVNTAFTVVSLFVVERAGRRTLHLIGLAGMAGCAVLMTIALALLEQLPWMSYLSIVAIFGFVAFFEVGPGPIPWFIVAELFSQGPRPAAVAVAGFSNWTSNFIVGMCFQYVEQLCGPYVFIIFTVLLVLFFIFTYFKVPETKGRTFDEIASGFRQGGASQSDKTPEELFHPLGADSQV
Method: Cells were maintained in Dulbecco's modified Eagle's medium containing 5.6 mM glucose supplemented with 10% fetal bovine serum, were seeded in 24-well plates at a density of 3.0×10^5 cells/well and cultured for 24 hours in an atmosphere of 5% CO2 at 37°C. […] The transport reaction was initiated by adding 50 µl of 4.5 mM 2-DG (a substrate for GLUTs)/^3H-2-DG (0.625 µCi) followed by incubation for 15 minutes at room temperature. The 2-DG uptake was halted by aspiration of the incubation mixture. Cells were immediately washed 3 times with ice-cold PBS. Samples were extracted with 0.3 N NaOH, and radioactivity was determined by liquid scintillation (Packard, Boston, Massachusetts, USA).

inhibition at 10 µM (Human SGLT3; 10 µM, SGLT3-injected oocytes, 50 µM DNJ, n = 9, DMSO 15.6±3.1%, difference not statistically significant): 23.4 ± 4.3%
effect on currents in sham-injected oocytes (Human SGLT3; 10 µM, sham (water)-injected oocytes, in the presence of 50 µM DNJ): did not affect currents
effect on DNJ-induced currents (Human SGLT3; oocytes expressing human SGLT3, column head IC50, nM): No inhibitory effect
inhibition at 10 µM ([1]; 10 µM, L6 myoblasts, read-out: inhibition of facilitative GLUT-mediated 3H-2-DG uptake): < 50%
IC50 ([1]; 3H-2-DG uptake, rat L6 myoblast cells): > 10 µM
SMILES: Cc1ccc([C@@H]2O[C@H](CO)[C@@H](O)[C@H](O)[C@H]2O)cc1Cc1ccc(-c2ccc(F)cc2)s1 [canagliflozin, Canagliflozin]
RER (DIO mice; vehicle 0.79±0.01): 0.77±0.01 ^b
UGE (DIO mice; vehicle 2.4±0.6): 26.1±5.2 ^b mg/4 h
Body weight (DIO mice; vehicle 53.2±0.6): 49.6±1.0 ^b g
Fed BG (DIO mice; vehicle 199±16): 105±13 ^b mg/dl
Oxygen consumption (VO2) (DIO mice; vehicle 2364±29): 2.419 ± 0.109 L/h/kg
